Patent publication US20070128217A1 (priority 2003, published 2007)

Assays:
[1] = test system: control sera (pooled serum of ten healthy LUMC hospital workers; commercial negative donor pooled serum from the Dutch bloodbank); format: binding, human; parameters: Binding of Control serum LUMC to linear peptides / Binding of Control serum Blood-bank to linear peptides / Binding of Control serum LUMC to looped peptides / Binding of Control Serum Blood-Bank to Looped peptides / Binding of Control serum LUMC to linear peptides of the protein M of SARS-CoV Urbani / Binding of Control serum Blood-bank to linear peptides of the protein M of SARS-CoV Urbani / Binding of Control serum LUMC to looped peptides of the protein M of SARS-CoV Urbani / Binding of Control Serum Blood-Bank to Looped peptides of the protein M of SARS-CoV Urbani: unit not given here
[2] = test system: rabbit serum obtained by immunizing a rabbit with the SARS-CoV strain Frankfurt 1; format: binding; parameters: Binding of a rabbit serum to linear peptides / Binding of a rabbit serum to looped peptides / Rabbit serum linear peptides / Rabbit serum looped peptides / Binding of a rabbit serum to linear peptides of protein N of SARS-CoV Urbani (Rabbit serum linear peptides) / Binding of a rabbit serum to looped/cyclic peptides of protein N of SARS-CoV Urbani (Rabbit serum looped peptides): unit not given here
[3] = test system: antibodies in sera from SARS patients (sera 1a, 1b, 2, 6, 37, 62, London, SARS-yellow, SARS-green); format: binding, human; parameters: Binding of serum 6 to linear peptides of protein X1 of SARS-CoV Urbani / Binding of serum 37 to linear peptides of protein X1 of SARS-CoV Urbani / Binding of serum 6 to looped/cyclic peptide (PEPSCAN-ELISA) / Binding of serum 37 to looped/cyclic peptide (PEPSCAN-ELISA) / Binding of serum 37 to looped/cyclic peptides of protein X1 of SARS-CoV Urbani / Binding of serum 6 to linear peptides of protein X2 / Binding of serum 37 to linear peptides of protein X2 / Binding of serum 37 to looped/cyclic peptides of protein X2 of SARS-CoV Urbani / Binding of serum 6 to linear peptides of protein M of SARS-CoV Urbani / Binding of serum 37 to linear peptides of protein M of SARS-CoV Urbani / Binding of serum 6 to looped/cyclic peptides of protein M of SARS-CoV Urbani / Binding of serum 37 to looped/cyclic peptides of protein M of SARS-CoV Urbani / Binding of serum 6 to linear peptides of protein X3 of SARS-CoV Urbani / Binding of serum 37 to linear peptides of protein X3 of SARS-CoV Urbani / Binding of serum 37 to looped/cyclic peptides of protein X3 of SARS-CoV Urbani / Binding of serum 6 to linear peptides of protein X4 of SARS-CoV Urbani / Binding of serum 37 to linear peptides of protein X4 of SARS-CoV Urbani / Binding of serum 37 to looped/cyclic peptides of protein X4 of SARS-CoV Urbani / Binding of serum 6 to linear peptides of protein X5 of SARS-CoV Urbani / Binding of serum 37 to linear peptides of protein X5 of SARS-CoV Urbani / Binding of serum 37 to looped/cyclic peptides of protein X5 of SARS-CoV Urbani / Binding of serum 6 to linear peptides of protein N of SARS-CoV Urbani / Binding of serum 37 to linear peptides of protein N of SARS-CoV Urbani / Binding of serum 6 to linear peptide (PEPSCAN-ELISA) / Binding of serum 1a to looped/cyclic peptides of protein N of SARS-CoV Urbani / Binding of serum 1b to looped/cyclic peptides of protein N of SARS-CoV Urbani / Binding of serum 2 to looped/cyclic peptides of protein N of SARS-CoV Urbani / Binding of serum 6 to looped/cyclic peptides of protein N of SARS-CoV Urbani / Binding of serum 37 to looped/cyclic peptides of protein N of SARS-CoV Urbani / Binding of serum 62 to looped/cyclic peptides of protein N of SARS-CoV Urbani / Binding of serum London to looped/cyclic peptides of protein N of SARS-CoV Urbani / Binding of serum SARS-green to looped/cyclic peptides of protein N of SARS-CoV Urbani: unit not given here

| Sequence | Binding of Control Serum Blood-Bank to Looped peptides [1] | Binding of Control serum Blood-bank to linear peptides [1] | Binding of Control serum LUMC to linear peptides [1] | Binding of Control serum LUMC to looped peptides [1] | Binding of a rabbit serum to linear peptides [2] | Binding of a rabbit serum to looped peptides [2] | Binding of serum 1a to looped/cyclic peptides of protein X2 of SARS-CoV Urbani [3] | Binding of serum 1b to looped/cyclic peptides of protein X2 of SARS-CoV Urbani [3] | Binding of serum 2 to looped/cyclic peptides of protein X2 of SARS-CoV Urbani [3] | Binding of serum 6 to looped/cyclic peptides of protein X2 of SARS-CoV Urbani [3] | Binding of serum 37 to looped/cyclic peptides of protein X2 of SARS-CoV Urbani [3] | Binding of serum 62 to looped/cyclic peptides of protein X2 of SARS-CoV Urbani [3] | Binding of serum London to looped/cyclic peptides of protein X2 of SARS-CoV Urbani [3] | Binding of serum SARS-green to looped/cyclic peptides of protein X2 of SARS-CoV Urbani [3] | Binding of serum SARS-yellow to looped/cyclic peptides of protein X2 of SARS-CoV Urbani [3] | further results |
| --- | --- | --- | --- | --- | --- | --- | --- | --- | --- | --- | --- | --- | --- | --- | --- | --- |
| CKYTQSTALQELLIQ | 0.4 | 0.6 | 0.5 | 0.6 | 0.2 | 0.2 | 0.6 | 0.6 | 0.5 | 0.4 | 0.3 | 0.4 | 0.3 | 0.4 | 0.3 | Binding of serum 1a to linear peptides of protein X2 [3]: 0.7; Binding of serum 1b to linear peptides of protein X2 [3]: 0.5; Binding of serum 2 to linear peptides of protein X2 [3]: 0.5; Binding of serum 6 to linear peptides of protein X2 [3]: 0.4; Binding of serum 37 to linear peptides of protein X2 [3]: 0.7; Binding of serum 62 to linear peptides of protein X2 [3]: 0.7; Binding of serum London to linear peptides of protein X2 [3]: 0.5; Binding of serum SARS-green to linear peptides of protein X2 [3]: 0.7; Binding of serum SARS-yellow to linear peptides of protein X2 [3]: 0.6 |
| CLCKHKKVSTNLCTH | 0.4 | 1.0 | 0.9 | 0.3 | 0.4 | 0.4 | 0.3 | 0.3 | 0.3 | 0.3 | 0.4 | 0.5 | 0.2 | 0.3 | 0.4 | Recognition of the peptide by sera of SARS-CoV infected individuals, and form (linear, looped/cyclic) in which it is recognized [3]: recognized in linear form |
| CLKILVRYNTRGNTY | 0.4 | 0.8 | 0.4 | 0.6 |  |  |  |  |  |  |  |  |  |  |  | Rabbit serum linear peptides [2]: 1.1; Rabbit serum looped peptides [2]: 0.2; Binding of serum 1a to linear peptides of protein X5 of SARS-CoV Urbani [3]: 0.7; Binding of serum 1a to looped/cyclic peptides of protein X5 of SARS-CoV Urbani [3]: 0.5; Binding of serum 1b to linear peptides of protein X5 of SARS-CoV Urbani [3]: 0.7; Binding of serum 1b to looped/cyclic peptides of protein X5 of SARS-CoV Urbani [3]: 0.2; Binding of serum 2 to linear peptides of protein X5 of SARS-CoV Urbani [3]: 0.8; Binding of serum 2 to looped/cyclic peptides of protein X5 of SARS-CoV Urbani [3]: 0.5; Binding of serum 6 to linear peptides of protein X5 of SARS-CoV Urbani [3]: 0.8; Binding of serum 6 to looped/cyclic peptides of protein X5 of SARS-CoV Urbani [3]: 0.4; Binding of serum 37 to linear peptides of protein X5 of SARS-CoV Urbani [3]: 0.7; Binding of serum 37 to looped/cyclic peptides of protein X5 of SARS-CoV Urbani [3]: 0.5; Binding of serum 62 to linear peptides of protein X5 of SARS-CoV Urbani [3]: 0.8; Binding of serum 62 to looped/cyclic peptides of protein X5 of SARS-CoV Urbani [3]: 0.7; Binding of serum London to linear peptides of protein X5 of SARS-CoV Urbani [3]: 0.7; Binding of serum London to looped/cyclic peptides of protein X5 of SARS-CoV Urbani [3]: 0.2; Binding of serum SARS-green to linear peptides of protein X5 of SARS-CoV Urbani [3]: 0.7; Binding of serum SARS-green to looped/cyclic peptides of protein X5 of SARS-CoV Urbani [3]: 0.4; Binding of serum SARS-yellow to linear peptides of protein X5 of SARS-CoV Urbani [3]: 0.3; Binding of serum SARS-yellow to looped/cyclic peptides of protein X5 of SARS-CoV Urbani [3]: 0.8 |
